Source: ChEMBL document CHEMBL6083265, “Design, synthesis and biological evaluation of 4,6-diarylquinoxaline-based KDM4D inhibitors” (Bioorg Med Chem, 2024)
pIC50: −log10 of the molar value. Activity calls are given as the source filed them. The calls are words filed in the database; no cut-off is given here.

Legend:
[1] = target: T1, Lysine-specific demethylase 4D (Homo sapiens, UniProt Q6B0I6); experiment: Inhibition of KDM4D (unknown origin) incubated for 60 mins by microplate reader analysis
T1 sequence (Q6B0I6 whole entry): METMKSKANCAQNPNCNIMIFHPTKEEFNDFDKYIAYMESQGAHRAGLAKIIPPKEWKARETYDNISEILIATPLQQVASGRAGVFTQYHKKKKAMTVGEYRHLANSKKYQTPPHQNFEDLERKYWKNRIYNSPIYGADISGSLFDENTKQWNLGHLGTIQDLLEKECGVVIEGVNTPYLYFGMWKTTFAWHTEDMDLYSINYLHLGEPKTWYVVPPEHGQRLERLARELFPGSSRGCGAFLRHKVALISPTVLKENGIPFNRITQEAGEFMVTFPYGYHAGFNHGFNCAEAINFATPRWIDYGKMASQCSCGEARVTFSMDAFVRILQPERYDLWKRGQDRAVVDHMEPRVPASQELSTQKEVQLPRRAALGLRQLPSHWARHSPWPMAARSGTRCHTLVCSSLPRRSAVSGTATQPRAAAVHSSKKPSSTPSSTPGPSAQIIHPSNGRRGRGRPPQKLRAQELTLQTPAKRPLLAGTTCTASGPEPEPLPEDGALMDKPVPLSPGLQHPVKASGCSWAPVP

Huh-7 [2] = conditions: Homo sapiens, Huh-7, 48 h
Huh-7 [3] = experiment: Downregulation of c-Myc expression in human Huh-7 cells by Western blot analysis; assay type: functional, cell-based
Huh-7 [4] = experiment: Downregulation of CyclinD1 expression in human Huh-7 cells by Western blot analysis; assay type: functional, cell-based
Huh-7 [5] = experiment: Inhibition of colony formation in human Huh-7 cells at 2 uM incubated for 72 hrs followed by compound washout and measured after 10 days by crystal violet staining based assay; assay type: functional, cell-based
Huh-7 [6] = experiment: Induction of cell cycle arrest in human Huh-7 cells assessed as increase in accumulation of cells at G1 phase at 2 uM by flow cytometry analysis; assay type: functional, cell-based
Huh-7 [7] = experiment: Induction of cell cycle arrest in human Huh-7 cells assessed as decrease in accumulation of cells at S phase at 2 uM by flow cytometry analysis; assay type: functional, cell-based
Huh-7 [8] = experiment: Induction of cell cycle arrest in human Huh-7 cells assessed as decrease in accumulation of cells at G2/M phase at 2 uM by flow cytometry analysis; assay type: functional, cell-based
Huh-7 [9] = experiment: Inhibition of cell migration in human Huh-7 cells at 2 uM measured for 24 hrs by wound healing assay; assay type: functional, cell-based
Huh-7 [10] = experiment: cells; conditions: Homo sapiens, Huh-7, 48 h, read-out: INH
Description: Anticancer activity against human Huh-7 cells assessed as inhibition of cell viability at 8 uM incubated for 48 hrs by CCK-8 assay (Rvb = 0 +/- 0.88 %)

SMILES | pIC50 [1] | inhibition at 8 µM (Huh-7 [10]) | also measured
Cc1ccc(-c2nc3ccc(NC(=S)N4CCCCCC4)cc3nc2-c2ccc(C)o2)o1 | 6.21 | 55.5% | pIC50 (Huh-7 [2]): 5.28; Activity (Huh-7 [3]): Active; Activity (Huh-7 [4]): Active; inhibition (Huh-7 [5]): Active; Activity (Huh-7 [6]): Active; Activity (Huh-7 [7]): Active; Activity (Huh-7 [8]): Active; inhibition (Huh-7 [9]): Active
S=C(Nc1ccc2nc(-c3ccco3)c(-c3ccco3)nc2c1)N1CCOCC1 | 5.42 | 30% | –
S=C(NCc1ccccn1)Nc1ccc2nc(-c3ccc(Br)o3)c(-c3ccc(Br)o3)nc2c1 | 4.89 | 38.1% | –
S=C(NCc1ccccn1)Nc1ccc2nc(-c3ccccn3)c(-c3ccccn3)nc2c1 | < 4.30 | 30.3% | –
S=C(NCc1ccncc1)Nc1ccc2nc(-c3ccccn3)c(-c3ccccn3)nc2c1 | < 4.30 | 39.8% | –
Fc1ccc(CNC(=S)Nc2ccc3nc(-c4ccccn4)c(-c4ccccn4)nc3c2)cc1 | < 4.30 | 37.8% | –
S=C(Nc1ccc2nc(-c3ccc(Br)o3)c(-c3ccc(Br)o3)nc2c1)N1CCCCCC1 | 5.22 | 25.8% | –
Fc1ccc(CNC(=S)Nc2ccc3nc(-c4cccs4)c(-c4cccs4)nc3c2)cc1 | < 4.30 | 41.8% | –
S=C(Nc1ccc2nc(-c3ccccn3)c(-c3ccccn3)nc2c1)N1CCCCCC1 | < 4.30 | 39.1% | –
S=C(Nc1ccc2nc(-c3ccc(Br)s3)c(-c3ccc(Br)s3)nc2c1)N1CCCCCC1 | < 4.30 | 41.5% | –
O=C1CCCN(C(=S)Nc2ccc3nc(-c4ccco4)c(-c4ccco4)nc3c2)CC1 | 5.40 | 29.5% | –
Fc1ccc(CNC(=S)Nc2ccc3nc(-c4ccc(Br)s4)c(-c4ccc(Br)s4)nc3c2)cc1 | < 4.30 | 28.5% | –
S=C(Nc1ccc2nc(-c3ccco3)c(-c3ccco3)nc2c1)N1CCCCCC1 | 5.64 | 33.3% | –

Second part, led by results:

pIC50 [1] | SMILES | inhibition at 8 µM (Huh-7 [10]) | also measured
5.58 | CCCCNC(=S)Nc1ccc2nc(-c3ccco3)c(-c3ccco3)nc2c1 | 30.7% | –
5.61 | S=C(Nc1ccc2nc(-c3ccco3)c(-c3ccco3)nc2c1)Nc1ccccn1 | 16% | –
5.44 | O=[N+]([O-])c1ccc(CNC(=S)Nc2ccc3nc(-c4ccco4)c(-c4ccco4)nc3c2)cc1 | 19.4% | –
5.32 | S=C(Nc1ccccc1)Nc1ccc2nc(-c3ccco3)c(-c3ccco3)nc2c1 | 25.6% | –
5.49 | Fc1ccc(CNC(=S)Nc2ccc3nc(-c4ccco4)c(-c4ccco4)nc3c2)cc1 | 33% | –
5.53 | O=C(Nc1ccc2nc(-c3ccco3)c(-c3ccco3)nc2c1)N1CCCCCC1 | 32.8% | –
5.51 | COc1ccc(CNC(=S)Nc2ccc3nc(-c4ccco4)c(-c4ccco4)nc3c2)cc1 | 32.9% | –
5.62 | COC(=O)CCCNC(=S)Nc1ccc2nc(-c3ccco3)c(-c3ccco3)nc2c1 | 20.2% | –
5.43 | O=C(Nc1ccccc1)Nc1ccc2nc(-c3ccco3)c(-c3ccco3)nc2c1 | 24.2% | –
4.59 | S=C(Nc1ccc2nc(-c3ccco3)c(-c3ccco3)nc2c1)c1ccccc1 | 33.8% | –
5.15 | O=C(Nc1ccccc1)C(=S)Nc1ccc2nc(-c3ccco3)c(-c3ccco3)nc2c1 | 19.7% | –
